# Data taken from patent US20250034079A1, “PROCESS FOR RECOVERING AMINOBENZOIC ACID FROM AN AQUEOUS MOTHER LIQUOR” (Covestro Deutschland AG, priority 2021, published 2025).
# Experiments:
# [1] = Solubility of the extractant in water / aqueous phase after the extraction; conditions: for Solubility in water at RT: solubility of the extractant; for solubility: water
# Experimental: (§1) The remaining mother liquor was extracted in one stage with various solvents (step (C)). […] The extraction was conducted at 30° C. The experiments were assessed by ascertaining the partition coefficients K (=ratio of the ortho-aminobenzoic acid [oAB] concentration in g/L in the organic phase [ORG=first alcoholic phase] to the aqueous phase [AQ=first aqueous phase]), the solubilities of the extractant in the aqueous phase after the extraction (=first aqueous phase) and—in four cases—the proportion by mass of organic secondary components (SC) in the organic extract phase (=first alcoholic phase) based on the totality of the organic secondary components in the two phases (=m(SC)ORG/m(SC)TOT). For this purpose, a separation was conducted by HPLC; organic impurities that elute earlier than ortho-aminobenzoic acid are referred to collectively as polar secondary components, and organic impurities that elute later than ortho-aminobenzoic acid as nonpolar secondary components.
# [2] = One-stage extraction of ortho-aminobenzoic acid from crystallization mother liquor with various extractants (partition coefficient); conditions: pH 3.5±0.2, 8.7 g/L oAB, phase ratio organic to aqueous 0.5, 30° C.
# Experimental: For the evaluation of the distribution of a component between two phases, the two phases were analyzed by HPLC-MS (with identical sample preparation and method). The coefficients of distribution were then determined as the ratio of peak areas for the same retention time.
# as §1
Solubility in water at RT [1],SMILES,solubility [1] [µg/mL],further results
insoluble,CCCCCCCC/C=C\CCCCCCCCO [Oleyl alcohol],,
,CCC(C)=O [2-Butanone],,"K = c(oAB)ORG/c(oAB)AQ (partition coefficient of ortho-aminobenzoic acid, organic to aqueous phase) [2]: 26.12"
,CCCCCCCCCCO [1-Decanol],40,
insoluble,CC1CCCC1 [Methylcyclopentane],,
,CCCCOC(C)=O [Butyl acetate],~6000,
